Laboratory results from paper PMC12844124, “Synthesis and Study of Substituted Chalcones Combined with Fluoroazobenzenes—New Photoswitches for Application in Biological Systems” (Molecules, 2026).

Key:
Type in all cases: physicochemical
[1] = Solubility in DMSO
[2] = UV–VIS spectra of E/Z isomers in DMSO; conditions: for Δ λmax n→π*: between E and Z isomers
Protocol: For this purpose, the UV–VIS spectra were measured for all synthesized hybrids (17a–17l) at concentrations from 20 to 500 µM in dimethyl sulfoxide (DMSO) in light at λ 505 nm and for (17a–17c), (17e–17g), and (17i–17l) at λ 525 nm, respectively, as detailed in Table 1 (see Section S4.4 in Supplementary Materials).

[3] = Changes over time of Z to E transition by 19F NMR; conditions: light 525 nm, 100 mM in DMSO
From the text: We can observe that for electromagnetic radiation in the range of wavelengths 390 nm to 610 nm, transitions from E to Z of about 0–76% are obtained. The best results for all compounds are in visible wavelengths 505 nm or 525 nm (30.59–75.44%). From analyzing Figure 2 we can draw the following conclusions: all synthesized compounds undergo switching under visible light (this is important because UV radiation can damage the DNA of cells, inhibiting replication and, as a result, preventing cell division). For the 2,6-difluoro substituents (17i), (17j), (17k), and (17l) with values of 74.84%, 73.2%, 74.39%, and 75.44%, respectively, the largest share of the Z configuration is at (525 nm) and, for the rest of (17a), (17b), (17c), (17e), (17f), and (17g), it is in range of 30.57–47.13% at 505 nm. […] Multiple cycles of photoreversible switching under alternating green and blue light irradiation, with no significant photobleaching or degradation, confirmed the repeatable and robust photochromic conversion of the synthesized azobenzenes (Figure 2b). Then we measured changes over time (transitions from Z to E, upon irradiation with 505 nm for (17a–17c) and (17e–17g), and 525 nm for (17i–17l) compounds (Figure 3, and see Section S4.3 in Supplementary Materials).

[4] = Photostationary state (PSS) composition by 19F NMR; conditions: irradiation 525 nm, DMSO-d6
From the text: Azo compounds have been applied in various fields due to their ability to undergo structural changes, with one of the most interesting applications being the direct conversion of light into mechanical energy. However, azobenzenes generally face two main limitations that hinder their practical use in biological and materials sciences. The first is the need for UV light to induce the E→Z isomerization through π→π* excitation, which can potentially interfere with and damage the surrounding environment. The second limitation is the typically incomplete reverse Z→E photoisomerization, which is induced by irradiation in the visible region. In this region, the n→π* bands of the E and Z isomers largely overlap, making it difficult to achieve E-rich photostationary states (PSSs) after back-switching. These limitations can be overcome by modifying azobenzene in such a way that the n→π* bands of the E and Z isomers are sufficiently separated. If the separation is large enough, the two n→π* bands can be distinct, allowing visible light to selectively isomerize both isomers with high to complete E/Z photoconversions. We are looking for switches that operate within the visible light range of 380–750 nm, which is harmless. Fluorine-substituted azobenzenes are well-suited for designing visible-light-responsive systems, offering stable and bidirectional photoconversions along with tissue-compatible properties. We confirmed that the compounds we synthesized successfully dock with tubulin. In the next step, we tested whether the added azo compound would meet our expectations as a visible light switch. For this purpose, we used NMR spectroscopy. We measured ^19F spectra of (17a–17c, 17e–17g, and 17i–17l) at nine wavelengths from 390 nm to 610 nm to check which wavelengths produce the most Z isomer after exposure (see Section S4.2 in Supplementary Materials). We selected DMSO as the solvent due to its ability to dissolve both polar and nonpolar molecules, which is essential for the analytical methods employed in this study. Its intermediate polarity also makes it a good surrogate for both organic and aqueous solvents. Additionally, DMSO is commonly used for preparing stock solutions, which are then illuminated and diluted into aqueous systems for assessing biological activity. […]
Figure 2 (a) Photostationary state (PSS) compositions for chalcones (17a–17c, 17e–17g, and 17i–17l) determined by ^19F NMR analysis (c ≈ 100 mM in DMSO-d6), presented in a bar chart; (b) representative multiple photoswitching rounds of 60 µM of (17j) in DMSO by pulsed green (525 nm) and blue (430 nm) light illumination. The photochemical stability of the drug is analyzed via repeated cycles of irradiation (software: Microsoft Excel).

solubility in DMSO [1] | εmax (n→π*) ([2]; E isomer) [dm^3·mol^−1·cm^−1] | λmax n→π* (E) ([2]; E isomer) [nm] | εmax (n→π*) ([2]; Z isomer) [dm^3·mol^−1·cm^−1] | λmax n→π* (Z) ([2]; Z isomer) [nm] | Δ λmax n→π* [2] [nm] | Z isomer, changes over time ([3]; 0 h) [%] | Z isomer, changes over time ([3]; 1 h) [%] | Z isomer, changes over time ([3]; 2 h) [%] | Z isomer, changes over time ([3]; 3 h) [%] | Z isomer, changes over time ([3]; 4 h) [%] | Z isomer, changes over time ([3]; 5 h) [%] | Z isomer, changes over time ([3]; 6 h) [%] | Z isomer, changes over time ([3]; 7 h) [%] | Z isomer, changes over time ([3]; 8 h) [%] | Δ (Z to E change 0 h to 8 h) [3] [%] | share of the Z configuration (PSS) [4] [%] | Compound
 |  |  |  |  |  | 74.39 | 74.02 | 72.48 | 72.26 | 70.95 | 70.43 | 69.33 | 67.93 | 67.18 | 7.21 | 74.39 | COc1cc(/C=C/C(=O)c2cccc(/N=N/c3c(F)cccc3F)c2)cc(OC)c1OC [Compound 17k]
 |  |  |  |  |  | 74.84 | 73.32 | 72.17 | 70.9 | 69.59 | 68.98 | 68 | 67.46 | 66.19 | 8.65 | 74.84 | COc1ccc(/C=C/C(=O)c2cccc(/N=N/c3c(F)cccc3F)c2)cc1OC [Compound 17i]
 | 902 | 448.6 | 1074 | 417.9 | 30.7 | 75.44 | 74.04 | 72.7 | 71.56 | 70.77 | 69.92 | 68.63 | 67.93 | 67.78 | 7.66 | 75.44 | O=C(/C=C/c1ccc(Br)cc1)c1cccc(/N=N/c2c(F)cccc2F)c1 [Compound 17l]

Further lines, the compound ahead of its results:

Compound | solubility in DMSO [1] | εmax (n→π*) ([2]; E isomer) [dm^3·mol^−1·cm^−1] | λmax n→π* (E) ([2]; E isomer) [nm] | εmax (n→π*) ([2]; Z isomer) [dm^3·mol^−1·cm^−1] | λmax n→π* (Z) ([2]; Z isomer) [nm] | Δ λmax n→π* [2] [nm] | Z isomer, changes over time ([3]; 0 h) [%] | Z isomer, changes over time ([3]; 1 h) [%] | Z isomer, changes over time ([3]; 2 h) [%] | Z isomer, changes over time ([3]; 3 h) [%] | Z isomer, changes over time ([3]; 4 h) [%] | Z isomer, changes over time ([3]; 5 h) [%] | Z isomer, changes over time ([3]; 6 h) [%] | Z isomer, changes over time ([3]; 7 h) [%] | Z isomer, changes over time ([3]; 8 h) [%] | Δ (Z to E change 0 h to 8 h) [3] [%] | share of the Z configuration (PSS) [4] [%]
O=C(/C=C/c1ccc(Br)cc1)c1cccc(/N=N/c2ccc(F)cc2)c1 [Compound 17d] | poorly soluble | 660 | 440.8 | 850 | 434.1 | 6.7 |  |  |  |  |  |  |  |  |  |  | 
O=C(/C=C/c1ccc(Br)cc1)c1cccc(/N=N/c2ccc(F)cc2F)c1 [Compound 17h] | poorly soluble | 796 | 441.2 | 1016 | 426.9 | 14.3 |  |  |  |  |  |  |  |  |  |  | 
